The target of one assay is CDK2/E (Homo sapiens (Human), UniProt P24941). Put plainly: ADP-Glo Kinase Assay, CDK2/E. The format is biochemical. To be noted: 1 μM compound; for inhibition at 1 µM: read-out: CDK2/E % INH (1 μM). In a few lines:
(§1)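 Compounds were diluted in assay buffer to 1000 nM and incubated with kinase, substrate and ATP at apparent Km. Remaining ATP was depleted, ADP converted to ATP and detected by luciferase; percent inhibition came from normalized luminescence.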

The test system of another assay is SW-480 cells. Put plainly: Growth inhibition, MTS assay, SW-480. The format is cell-based, Human. Particulars: 72 hours, MTS cell viability, read-out: SW-480 ED50. The text has this:
The following cell lines, were obtained and used in tests as outlined below: • Human myelomonocytic, biphenotypic leukemia MV4-11 cells (harboring a Flt3-ITD mutation); • Human Acute Myeloid Leukemia MOLM16 cells; • Human Acute Myeloid Leukemia MOLM13 cells (harboring a Flt3-ITD mutation); • Human Myeloid Leukemia KG-1 cells; • Human erythroleukemia HEL92 cells; • Human mantle cell lymphoma Jeko-1 cells; • Human hepatocellular carcinoma HepG2 cells; and • Human colon adenocarcinoma SW-480 cells.
The assays were carried out according to the following protocol, which is described as an example for the MV4-11 cells:
Ten thousand MV4-11 cells were inoculated into each well of a 96-well microplate (manufactured by Corning Corp.) using Iscove's MDM medium (culture medium) containing 10% fetal calf serum (FCS). The same day, a dimethyl sulfoxide (DMSO) solution of each test compound prepared in a concentration of 10 mmol/L was further diluted with DMSO to the desired concentrations (0.1, 0.5, 1, 2.5, 5 and 10 micromol/L), and the diluted solution was added to each well. The individual wells were further cultured in 5% carbon dioxide at 37° C. for 72 hours. […] Briefly, 10 μl MTS (3-(4,5-Dimethyl-2-thiazolyl)-5-(carboxymethoxyphenyl)-2-(4-sulfophenyl)-2H-tetrazolium was added to each well, and culturing was performed in 5% carbon dioxide at 37° C. for 2 hours. After this incubation and using a microplate spectrophotometer (Synergy 2 multi-mode microplate reader (BioTek)), the absorbance of each well was measured at 490 nm. The value for cells not incubated with a test compound was designated as 100%. By comparing these values with the absorbance difference obtained at the well in which each test compound was added, the cell viability (% viability) after treatment with the test compound was calculated.
(In general: Formazan colour is commonly taken as a measure of viable cells.)

For a further assay, the target named is Pim-3 (Homo sapiens (Human), UniProt Q86V86). Put plainly: ADP-Glo Kinase Assay, Pim-3. Type of assay: biochemical. Particulars: 1 μM compound; for inhibition at 1 µM: read-out: Pim-3 % INH (1 μM). In a few lines: as §1
For another assay, the target named is Pim-2 (Homo sapiens (Human), UniProt Q9P1W9). Put plainly: ADP-Glo Kinase Assay, Pim-2. The format is biochemical. To be noted: 1 μM compound; for inhibition at 1 µM: read-out: Pim-2 % INH (1 μM). In a few lines: as §1
Chain of Pim-2 (Q9P1W9 whole entry): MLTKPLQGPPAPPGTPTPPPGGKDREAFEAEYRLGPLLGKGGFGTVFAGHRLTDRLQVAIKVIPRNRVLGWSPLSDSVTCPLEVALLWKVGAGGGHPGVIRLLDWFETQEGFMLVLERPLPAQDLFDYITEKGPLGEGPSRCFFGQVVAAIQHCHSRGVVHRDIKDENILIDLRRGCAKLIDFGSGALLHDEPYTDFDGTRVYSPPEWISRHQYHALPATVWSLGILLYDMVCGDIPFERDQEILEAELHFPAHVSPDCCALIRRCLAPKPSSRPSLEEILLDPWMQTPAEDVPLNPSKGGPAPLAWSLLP
Background: In ADP-Glo the light output rises with the ADP produced.

The target of a further assay is Pim-1 (Homo sapiens (Human), UniProt P11309). Put plainly: ADP-Glo Kinase Assay, Pim-1. The format is biochemical. Particulars: 1 μM compound; for inhibition at 1 µM: read-out: Pim-1 % INH (1 μM). The procedure, abridged: as §1
Chain of Pim-1 (P11309 whole entry): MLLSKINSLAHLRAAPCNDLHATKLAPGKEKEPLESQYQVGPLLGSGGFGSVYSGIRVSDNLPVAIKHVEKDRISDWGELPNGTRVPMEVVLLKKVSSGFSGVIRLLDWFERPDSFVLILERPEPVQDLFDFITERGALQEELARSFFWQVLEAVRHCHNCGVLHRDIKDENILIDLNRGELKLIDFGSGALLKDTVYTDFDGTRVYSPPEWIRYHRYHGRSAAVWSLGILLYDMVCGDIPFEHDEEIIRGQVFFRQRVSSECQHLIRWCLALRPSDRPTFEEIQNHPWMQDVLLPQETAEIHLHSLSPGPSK
The test system of another assay is MV4-11 cells. Put plainly: Growth inhibition, MTS assay, MV4-11. Type of assay: cell-based, Human. To be noted: MTS cell viability, read-out: MV4-11 ED50.
A further assay deals with FLT3wt (Homo sapiens (Human), UniProt P36888). Put plainly: ADP-Glo Kinase Assay, Flt3 wt. The format is biochemical. Particulars: 1 μM compound; for inhibition at 1 µM: read-out: Flt3wt % INH (1 μM). The procedure, abridged: as §1
Chain of FLT3wt (P36888 27-993): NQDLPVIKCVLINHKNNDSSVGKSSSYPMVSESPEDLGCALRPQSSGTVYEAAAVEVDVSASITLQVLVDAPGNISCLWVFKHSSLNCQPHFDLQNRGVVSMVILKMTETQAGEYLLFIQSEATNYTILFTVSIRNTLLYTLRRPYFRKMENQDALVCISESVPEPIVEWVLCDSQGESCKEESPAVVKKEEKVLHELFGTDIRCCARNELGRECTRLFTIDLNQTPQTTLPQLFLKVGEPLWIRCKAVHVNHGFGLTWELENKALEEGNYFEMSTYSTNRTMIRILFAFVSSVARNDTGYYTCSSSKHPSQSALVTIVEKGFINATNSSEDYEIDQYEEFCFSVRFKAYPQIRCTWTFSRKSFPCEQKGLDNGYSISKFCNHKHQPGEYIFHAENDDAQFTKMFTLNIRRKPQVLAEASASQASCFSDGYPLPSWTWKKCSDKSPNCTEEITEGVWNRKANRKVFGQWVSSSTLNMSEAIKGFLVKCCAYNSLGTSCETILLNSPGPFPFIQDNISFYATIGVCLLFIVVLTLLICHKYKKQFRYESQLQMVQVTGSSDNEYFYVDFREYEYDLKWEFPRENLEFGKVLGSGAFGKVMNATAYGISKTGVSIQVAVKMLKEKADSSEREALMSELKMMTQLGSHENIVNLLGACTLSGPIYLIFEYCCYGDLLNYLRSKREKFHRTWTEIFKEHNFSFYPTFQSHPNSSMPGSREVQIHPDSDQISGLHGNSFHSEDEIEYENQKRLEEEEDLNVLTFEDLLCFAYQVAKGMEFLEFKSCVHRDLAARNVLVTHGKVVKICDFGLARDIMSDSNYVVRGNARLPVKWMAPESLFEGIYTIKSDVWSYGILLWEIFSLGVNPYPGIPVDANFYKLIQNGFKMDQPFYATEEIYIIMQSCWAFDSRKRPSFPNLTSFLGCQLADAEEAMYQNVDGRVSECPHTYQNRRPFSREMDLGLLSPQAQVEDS
Another assay relates to HEL92 cells. Put plainly: Growth inhibition, MTS assay, HEL92. Type of assay: cell-based, Human. To be noted: MTS cell viability, read-out: HEL92 ED50.
Another assay relates to HepG2 cells. Put plainly: Growth inhibition, MTS assay, HepG2. The format is cell-based, Human. Particulars: MTS cell viability, read-out: HepG2 ED50.
Another assay deals with DYRK1 (Homo sapiens (Human), UniProt Q13627). Put plainly: ADP-Glo Kinase Assay, DYRK1. Type of assay: biochemical. To be noted: 1 μM compound; for inhibition at 1 µM: read-out: DYRK1A % INH (1 μM). The procedure, abridged: as §1

The structures appear in SMILES notation. Counter-ions that a name gives are not always drawn. Like-named read-outs stand apart in the source and are kept apart here.

The values below come from patent US10174013B2, “Benzimidazole derivatives as kinase inhibitors” (SELVITA S.A., priority 2012, dated 2019).

Turning to `CCn1c(NCCCN)nc2c([N+](=O)[O-])c(Br)c(Br)cc21` [Example 1C], the inhibition at 1 µM on CDK2/E was under 5%; on Pim-3, 70%; on Pim-2, 28%; at Pim-1 it was 85%; at FLT3wt it was under 5%. The IC50 in the assay with SW-480 cells (Homo sapiens, SW480) is 7.4 µM; in the assay with MV4-11 cells (Homo sapiens, MV4-11, 72 h) it was 3.1 µM; with HEL92 cells (Homo sapiens, 72 h), over 10 µM; in the assay on HepG2 cells (Homo sapiens, HepG2, 72 h) it was 4.1 µM.

For the compound `CCn1c(N2CCCC(N)C2)nc2c([N+](=O)[O-])c(Br)c(Br)cc21.Cl` (stereo not drawn) [Example 1F], the “CDK2/E % INH (1 μM)” value at CDK2/E is on record as under 5%. For the same compound, the IC50 in the assay on SW-480 cells was determined as 3.3 µM; in the assay with MV4-11 cells (72 hours) it was 2.3 µM; in the assay on HEL92 cells (72 hours), 5.0 µM; in the assay with HepG2 cells (72 hours), 3.3 µM. The “Pim-3 % INH (1 μM)” value at Pim-3 is recorded as 83%. For the same compound, on Pim-2, the “Pim-2 % INH (1 μM)” value was 36%. The “Pim-1 % INH (1 μM)” value at Pim-1 turned out to be 90%. In addition, the “Flt3wt % INH (1 μM)” value on FLT3wt came out at 6%. At DYRK1, the “DYRK1A % INH (1 μM)” value is 20%.

Regarding `CCn1c(NC2CCC(N)CC2)nc2c([N+](=O)[O-])c(Br)c(Br)cc21` (stereo not drawn) [Example 1H], on CDK2/E, the “CDK2/E % INH (1 μM)” value is recorded as under 5%. The IC50 with SW-480 cells (Homo sapiens, SW480) is 3.4 µM; in the assay with MV4-11 cells (72 hours), 2.3 µM; in the assay on HEL92 cells (72 hours), 7.6 µM; with HepG2 cells (72 hours), 2.7 µM. Further, the inhibition at 1 µM at Pim-3 worked out at 38%; at Pim-2, 25%. Further, on Pim-1, the “Pim-1 % INH (1 μM)” value is on record as 58%. Moreover, the “Flt3wt % INH (1 μM)” value on FLT3wt is given as under 5%. Also, on DYRK1, the “DYRK1A % INH (1 μM)” value came to 9%.

With `CC(C)n1c(NCCCN)nc2c([N+](=O)[O-])c(Br)c(Br)cc21` [Example 1L], the inhibition at 1 µM at CDK2/E is 32%; at Pim-3, over 95%; on Pim-2, 58%; at Pim-1 it was over 95%; on FLT3wt, 21%; on DYRK1, 47%. Also, the IC50 in the assay on SW-480 cells (Homo sapiens, SW480) is 3.3 µM; in the assay on MV4-11 cells (Homo sapiens, MV4-11, 72 h), 1.2 µM; in the assay with HEL92 cells (Homo sapiens, 72 h) it was 5.7 µM; in the assay on HepG2 cells (Homo sapiens, HepG2, 72 h), 1.6 µM.

Consider `C#CCn1c(NCCCN)nc2c([N+](=O)[O-])c(Br)c(Br)cc21` [Example 2G, N-(3-aminopropyl)-5,6-dibromo-4-nitro-1-(prop-2-yn-1-yl)-1H-1,3-benzodiazol-2-amine hydrochloride], for which the inhibition at 1 µM at CDK2/E was under 5%; at Pim-3, 34%; on Pim-1 it was 71%; on FLT3wt, 10%; on DYRK1 it was 25%. The IC50 in the assay on SW-480 cells (Homo sapiens, SW480) was 3.1 µM; in the assay with MV4-11 cells (Homo sapiens, MV4-11, 72 h), 2.3 µM; with HEL92 cells (Homo sapiens, 72 h) it was 6 µM; with HepG2 cells (Homo sapiens, HepG2, 72 h) it was 1.3 µM.

`CCn1c(N2CCCN(C)CC2)nc2c([N+](=O)[O-])c(Br)c(Br)cc21` [Example 22M, 5,6-dibromo-1-ethyl-2-(4-methyl-1,4-diazepan-1-yl)-4-nitro-1H-1,3-benzodiazole]: the inhibition at 1 µM at CDK2/E is under 5%; on Pim-3, 29%; at Pim-2, 18%; on Pim-1, 74%; at FLT3wt, under 5%. Besides, the IC50 in the assay with SW-480 cells (Homo sapiens, SW480) came to 4.7 µM; in the assay with MV4-11 cells (Homo sapiens, MV4-11, 72 h), 3.7 µM; in the assay with HEL92 cells (Homo sapiens, 72 h), 6.5 µM; in the assay with HepG2 cells (Homo sapiens, HepG2, 72 h) it was 5 µM.

Take `CCn1c(N2CCNC(C)C2)nc2c([N+](=O)[O-])c(Br)c(Br)cc21` (stereo not drawn) [Example 22X, 5,6-dibromo-1-ethyl-2-(3-methylpiperazin-1-yl)-4-nitro-1H-1,3-benzodiazole]: the inhibition at 1 µM was under 5% on CDK2/E; 56% on Pim-3; 74% on Pim-1; under 5% at FLT3wt; 39% at DYRK1. The IC50 with SW-480 cells (Homo sapiens, SW480) was 5 µM; in the assay with MV4-11 cells (Homo sapiens, MV4-11, 72 h) it was 0.7 µM; with HEL92 cells (Homo sapiens, 72 h) it was 8.7 µM; in the assay with HepG2 cells (Homo sapiens, HepG2, 72 h), 2.3 µM.
